Tested on: recombinant human ICAM-1/VCAM-1
Assay: Flow chamber: Jurkat E6.1 T cell-rolling on recombinant ICAM-1/VCAM-1, semi short-term conditions
Assay type: cell-based
Conditions: Jurkat E6.1 T cells, +AMG 103 10 ng/ml, t=45 min; coated at 12.5 and 10 μg/ml; control −AMG 103 640±91
Description: Recombinant proteins (rhICAM-1 #ADP4-050, rhVCAM-1 #ADP5-050 or rhP-selectin #ADP3-050, R&D Systems) were dissolved in ddH2O according to the manufacturer's instructions. Prior to rolling experiments recombinant proteins were diluted in Dulbecco's PBS with Ca^2+ and Mg^2+ (#L1815, Biochrom) and coated onto a μ-slide VI^0.4 Luer ibiTreat (#80606, ibidi) over night at 4° C. Before usage slides were washed three times with Dulbecco's PBS and blocked where indicated with 20% FBS (#10270, Gibco) in PBS for 2 h at room temperature. Blocking solution was replaced by RPMI 1640 medium (#FG1215, Biochrom) without supplements. […]
For rolling experiments using Jurkat E6.1 T cells, these cells were resuspended in RPMI 1640 medium (#FG1215, Biochrom) without supplements to a final concentration of 1.5-3×10^5 cells/ml. […] Image sequences of 45 sec duration were recorded at t=40 min, 45 min, and 50 min as described in Example 2 (p. 50, 18-23).
Experiments under defined hydrodynamic flow conditions were performed by using either freshly isolated human T cells or Jurkat E6.1 T cells and μ-slide VI^0.4 Luer ibiTreat (#80606, ibidi) coated with different recombinant proteins as described above. […] T cell-interactions with recombinant proteins were recorded as described above and data was analyzed as described in detail in Example 2 (p. 50, 23-30). […]

How did the “mean T cell-rolling velocity±SD” value turn out when “Blinatumomab: recombinant CD19×CD3 bispecific scFv antibody consisting of four immunoglobulin variable domains assembled into a single polypeptide chain” was run?
The value was 518±98 μm/sec.

Source: patent US9688760B2, “Anti-leukocyte adhesion for the mitigation of potential adverse events caused by CD3-specific binding domains” (AMGEN RESEARCH (MUNICH) GMBH, priority 2013, dated 2017)
